12 compounds from patent US20260297060A1, “COMPOUNDS FOR THE DEGRADATION OF MUTANT BRAF” (C4 THERAPEUTICS, INC., priority 2023, published 2026) can be followed below.

The structures appear in SMILES notation. Where two headings read alike, the source gives them in different places. Some results are limits rather than exact numbers.

Assay [1] concerns the target T1, BRAF V600E (Homo sapiens, UniProt P15056+Q96SW2, V600E).
T1 construct: knock-in of the HiBiT tag to the endogenous BRAF V600E locus; host or cells: A375.10 (A375 clonal line, CRISPR HiBiT knock-in at the endogenous BRAF V600E locus)
Kind of assay: BRAF V600E HiBiT Degradation Assay. It counts as cell-based. The gist of the method:
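Endogenous HiBiT knock-in on BRAF V600E in A375 cells (clone A375.10); 11-point half-log series, top 10 μM, 2, 6 or 24 h at 37° C. Lytic HiBiT luminescence, background-subtracted, normalized to DMSO; 4-parameter fit gives DC50, Emax (residual protein) and IP (inflection point).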
For orientation: The HiBiT peptide binds its large partner to form an active luciferase.

Assay [2] has as its system A375-NRAS^Q61K cells. The assay is described as follows: CTGlo Cell Viability Assay, A375-NRAS^Q61K (A375.11) cells, 96 hours. The settings on record: A375.11 (A375-NRAS^Q61K) cells; for Emax / CTGlo A375.11 96 hours Emax: lowest % viability achieved. It is filed as cell-based, human. In a few lines: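 Viability as CellTiter-Glo ATP luminescence after 96 h compound exposure at 37 °C; A375.11 (BRAF V600E/NRAS Q61K) cells at 250/well, top final concentration 10 μM in half-log steps. Signal was background-corrected and set relative to DMSO controls. A 4-parameter logistic fit gave GI50 (50% crossing) and Emax.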

The mark [3] stands for this setting: A375.10 cells, BRAF V600E, 2 hours, inflection point, read-out: HiBiT-Degradation A375.10 BRAF 2 hours IP.
Where [4] appears, read: A375.10 cells, BRAF V600E, 2 hours, read-out: HiBiT-Degradation A375.10 BRAF 2 hours DC50.
[5] abbreviates: A375.10 cells, BRAF V600E, 2 hours, residual protein remaining, read-out: HiBiT-Degradation A375.10 BRAF 2 hours Emax.
[6] abbreviates: A375.10 cells, BRAF V600E, 2 hours, residual protein remaining.

T1 sequence (P15056 whole entry V600E): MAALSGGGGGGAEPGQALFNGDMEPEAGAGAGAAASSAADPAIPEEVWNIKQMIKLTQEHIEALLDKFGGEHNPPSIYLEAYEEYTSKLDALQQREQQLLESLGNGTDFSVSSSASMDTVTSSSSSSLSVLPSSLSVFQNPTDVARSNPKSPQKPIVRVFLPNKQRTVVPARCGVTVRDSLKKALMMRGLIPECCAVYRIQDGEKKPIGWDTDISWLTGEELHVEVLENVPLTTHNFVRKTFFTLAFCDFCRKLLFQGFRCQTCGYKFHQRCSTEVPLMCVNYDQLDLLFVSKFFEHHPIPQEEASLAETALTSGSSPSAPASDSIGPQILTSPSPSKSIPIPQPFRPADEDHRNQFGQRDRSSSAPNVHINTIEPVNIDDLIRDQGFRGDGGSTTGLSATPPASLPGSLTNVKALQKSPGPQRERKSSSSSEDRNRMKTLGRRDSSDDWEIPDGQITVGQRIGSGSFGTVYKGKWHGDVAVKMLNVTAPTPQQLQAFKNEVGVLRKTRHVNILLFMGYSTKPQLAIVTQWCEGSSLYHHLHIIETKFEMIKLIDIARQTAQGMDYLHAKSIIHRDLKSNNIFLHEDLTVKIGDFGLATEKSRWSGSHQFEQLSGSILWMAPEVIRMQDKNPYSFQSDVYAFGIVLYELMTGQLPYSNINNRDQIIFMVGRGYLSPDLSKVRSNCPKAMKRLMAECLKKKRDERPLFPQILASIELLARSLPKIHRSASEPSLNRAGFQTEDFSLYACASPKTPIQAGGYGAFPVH
T1 sequence (Q96SW2 whole entry): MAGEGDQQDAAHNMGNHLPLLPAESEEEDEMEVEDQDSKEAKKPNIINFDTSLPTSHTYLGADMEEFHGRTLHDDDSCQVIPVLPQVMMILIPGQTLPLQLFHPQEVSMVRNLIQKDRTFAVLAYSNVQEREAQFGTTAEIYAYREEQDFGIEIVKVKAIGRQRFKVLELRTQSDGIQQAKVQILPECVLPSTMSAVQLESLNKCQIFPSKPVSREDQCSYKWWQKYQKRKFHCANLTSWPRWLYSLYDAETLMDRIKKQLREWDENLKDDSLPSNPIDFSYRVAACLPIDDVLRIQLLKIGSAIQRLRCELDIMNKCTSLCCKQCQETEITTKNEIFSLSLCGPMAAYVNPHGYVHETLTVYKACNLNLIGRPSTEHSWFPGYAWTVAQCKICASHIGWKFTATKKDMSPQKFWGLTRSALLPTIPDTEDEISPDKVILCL
T1 sequence (Q16531 whole entry partner): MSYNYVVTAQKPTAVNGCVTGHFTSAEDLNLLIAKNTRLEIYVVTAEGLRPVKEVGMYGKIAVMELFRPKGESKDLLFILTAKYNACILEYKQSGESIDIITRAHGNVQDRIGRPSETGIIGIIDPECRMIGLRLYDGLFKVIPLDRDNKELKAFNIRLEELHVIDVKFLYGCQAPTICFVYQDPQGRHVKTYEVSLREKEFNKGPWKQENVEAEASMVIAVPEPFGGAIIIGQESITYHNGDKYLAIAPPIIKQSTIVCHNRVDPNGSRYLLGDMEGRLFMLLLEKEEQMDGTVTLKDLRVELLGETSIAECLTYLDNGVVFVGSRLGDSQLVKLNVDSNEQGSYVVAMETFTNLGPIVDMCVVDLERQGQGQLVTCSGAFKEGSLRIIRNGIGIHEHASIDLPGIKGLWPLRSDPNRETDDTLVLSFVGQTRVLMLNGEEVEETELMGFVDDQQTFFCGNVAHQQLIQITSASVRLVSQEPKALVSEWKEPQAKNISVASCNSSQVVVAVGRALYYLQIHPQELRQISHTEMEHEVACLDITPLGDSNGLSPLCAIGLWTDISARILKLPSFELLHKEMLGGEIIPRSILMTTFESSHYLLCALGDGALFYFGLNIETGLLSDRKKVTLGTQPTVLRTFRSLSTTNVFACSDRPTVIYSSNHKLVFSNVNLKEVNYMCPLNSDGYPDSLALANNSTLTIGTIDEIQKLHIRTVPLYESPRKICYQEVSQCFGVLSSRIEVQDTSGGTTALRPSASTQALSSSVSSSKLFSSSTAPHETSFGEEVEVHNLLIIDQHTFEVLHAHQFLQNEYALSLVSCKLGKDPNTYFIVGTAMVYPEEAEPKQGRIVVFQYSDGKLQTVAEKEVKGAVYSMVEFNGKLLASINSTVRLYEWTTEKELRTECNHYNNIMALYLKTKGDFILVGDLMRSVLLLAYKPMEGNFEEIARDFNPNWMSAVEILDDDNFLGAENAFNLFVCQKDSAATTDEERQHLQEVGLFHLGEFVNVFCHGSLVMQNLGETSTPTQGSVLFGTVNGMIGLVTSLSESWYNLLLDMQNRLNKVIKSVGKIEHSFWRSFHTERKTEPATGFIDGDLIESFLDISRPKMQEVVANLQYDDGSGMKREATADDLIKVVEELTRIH

The term GI50 denotes the concentration at which growth is held to half of that of the control. High values mean less potent growth inhibition, low ones more potent growth inhibition. Consider `CCN(C)S(=O)(=O)Nc1ccc(F)c(Oc2ccc3ncn(CC4CCN(C5CC6(C5)CN(c5cc7c(cc5F)c(N5CCC(=O)NC5=O)nn7C)C6)CC4)c(=O)c3c2)c1C#N` [Compound 258, 6-[2-cyano-3-[[ethyl(methyl)sulfamoyl]amino]-6-fluoro-phenoxy]-3-[[1-[2-[3-(2,4-dioxohexahydropyrimidin-1-yl)-5-fluoro-1-methyl-indazol-6-yl]-2-azaspiro[3.3]heptan-6-yl]-4-piperidyl]methyl]-4-oxo-quinazoline], for which the DC50 in assay [1] (setting [3]) is below 1 µM; in assay [1] (setting [4]), 1 to 10 µM. Moreover, the Emax lay in the range of 50 to 90% in assay [1] (setting [5]) and 50 to 90% in assay [2] (Homo sapiens, 96 h). The same compound yielded a GI50 in assay [2] (Homo sapiens, 96 h) above 10 µM.

`CCN(C)S(=O)(=O)Nc1ccc(F)c(Oc2ccc3ncn(C4CC5(CCN(C6CCC(c7cc8c(cc7F)c(N7CCC(=O)NC7=O)nn8C)CC6)CC5)C4)c(=O)c3c2)c1F` (single isomer, unassigned) [Compound 179, 3-[7-[4-[3-(2,4-dioxohexahydropyrimidin-1-yl)-5-fluoro-1-methyl-indazol-6-yl]cyclohexyl]-7-azaspiro[3.5]nonan-2-yl]-6-[3-[[ethyl(methyl)sulfamoyl]amino]-2,6-difluoro-phenoxy]-4-oxo-quinazoline]: in assay [1], the “HiBiT-Degradation A375.10 BRAF 2 hours Emax” value was “** (<90% and >50%)”. Besides, the DC50 in assay [1] (setting [3]) is below 1 µM. In addition, in assay [1] (setting [4]), the DC50 is below 1 µM. Also, in assay [2], the concentration for 50% growth inhibition (GI50) lay in the range of 1 to 10 µM; the “CTGlo A375.11 96 hours Emax” value is “** (<90% and >50%)”.

For the compound `CN(CCO)S(=O)(=O)Nc1ccc(F)c(Oc2ccc3ncn(C4CC5(CCN(C6CCC(c7ccc(NC8CCC(=O)NC8=O)cc7F)CC6)CC5)C4)c(=O)c3c2)c1C#N` (single isomer, unassigned) [Compound 80, 6-[2-cyano-6-fluoro-3-[[2-hydroxyethyl(methyl)sulfamoyl]amino]phenoxy]-3-[7-[4-[4-[(2,6-dioxo-3-piperidyl)amino]-2-fluoro-phenyl]cyclohexyl]-7-azaspiro[3.5]nonan-2-yl]-4-oxo-quinazoline], in assay [1] (setting [3]), the DC50 was below 1 µM. Further, in assay [1] (setting [4]), the DC50 is above 10 µM. Moreover, in assay [1] (setting [6]), the “HiBiT-Degradation A375.10 BRAF 2 hours Emax” value was “** (<90% and >50%)”. In assay [2], the GI50 was above 10 µM; the “CTGlo A375.11 96 hours Emax” value is “** (<90% and >50%)”.

With `CCN(C)S(=O)(=O)Nc1ccc(F)c(Oc2ccc3ncn([C@H]4COC5(CCN(C6CC7(C6)CN(c6ccc(NC8CCC(=O)NC8=O)cc6F)C7)CC5)C4)c(=O)c3c2)c1F` (stereo partly drawn) [Compound 193, (3R)-8-[2-[4-[(2,6-dioxo-3-piperidyl)amino]-2-fluoro-phenyl]-2-azaspiro[3.3]heptan-6-yl]-3-[6-[3-[[ethyl(methyl)sulfamoyl]amino]-2,6-difluoro-phenoxy]-4-oxo-quinazolin-3-yl]-1-oxa-8-azaspiro[4.5]decane], the Emax in assay [1] (setting [5]) lay within 50 to 90%; in assay [2] (Homo sapiens, 96 h) it was 50 to 90%. The DC50 in assay [1] (read-out: HiBiT-Degradation A375.10 BRAF 2 hours DC50, A375.10 cells, BRAF V600E, 2 hours) is above 10 µM; in assay [1] (read-out: HiBiT-Degradation A375.10 BRAF 2 hours IP, A375.10 cells, BRAF V600E, 2 hours, inflection point), below 1 µM. The compound also had a 50% growth inhibitory concentration (GI50) in assay [2] (Homo sapiens, 96 h) of 1 to 10 µM.

Regarding `CCN(C)S(=O)(=O)Nc1ccc(F)c(Oc2ccc3ncc(OCC4CCN(C5CCC(c6cc7c(cc6F)c(N6CCC(=O)NC6=O)nn7C)CC5)CC4)nc3c2)c1C#N` (single isomer, unassigned) [Compound 119, 7-[2-cyano-3-[[ethyl(methyl)sulfamoyl]amino]-6-fluoro-phenoxy]-2-[[1-[4-[3-(2,4-dioxohexahydropyrimidin-1-yl)-5-fluoro-1-methyl-indazol-6-yl]cyclohexyl]-4-piperidyl]methoxy]quinoxaline], the “HiBiT-Degradation A375.10 BRAF 2 hours Emax” value in assay [1] was “** (<90% and >50%)”. Moreover, the DC50 in assay [1] (setting [3]) was below 1 µM. Moreover, the DC50 in assay [1] (setting [4]) is below 1 µM. Further, in assay [2], the GI50 lay within 1 to 10 µM; the “CTGlo A375.11 96 hours Emax” value is “** (<90% and >50%)”.

As for `CCN(C)S(=O)(=O)Nc1ccc(F)c(Oc2ccc3ncn([C@H]4COC5(C4)CN(C4CCC(c6cc7c(cc6F)c(N6CCC(=O)NC6=O)nn7C)CC4)C5)c(=O)c3c2)c1C#N` (single isomer, unassigned) [Compound 236], the DC50 in assay [1] (setting [3]) is below 1 µM. Also, the DC50 in assay [1] (setting [4]) was below 1 µM. Moreover, in assay [1] (setting [6]), the “HiBiT-Degradation A375.10 BRAF 2 hours Emax” value is on record as “*** (<=50%)”. For the same compound, in assay [2], the GI50 lay within 1 to 10 µM; the “CTGlo A375.11 96 hours Emax” value was “** (<90% and >50%)”.

Consider `CCN(C)S(=O)(=O)Nc1ccc(F)c(Oc2ccc3ncn([C@@H]4CO[C@]5(CCN(C6CCC(c7cc8c(cc7F)c(N7CCC(=O)NC7=O)nn8C)CC6)C5)C4)c(=O)c3c2)c1C#N` (single isomer, unassigned) [Compound 290], for which the figures for the DC50 in assay [1] (setting [3]) and in assay [1] (setting [4]) were below 1 µM and 1 to 10 µM, respectively. In addition, in assay [1] (setting [5]), the Emax was in the range of 50 to 90%. Also, the 50% growth inhibitory concentration (GI50) in assay [2] was above 10 µM. The “CTGlo A375.11 96 hours Emax” value in assay [2] is “** (<90% and >50%)”.

For the compound `CCN(C)S(=O)(=O)Nc1ccc(F)c(Oc2ccc3ncn(C4CC5(CCN(CC6(O)CCN(c7cc8c(cc7F)c(N7CCC(=O)NC7=O)nn8C)CC6)CC5)C4)c(=O)c3c2)c1C#N` [Compound 226, 6-[2-cyano-3-[[ethyl(methyl)sulfamoyl]amino]-6-fluoro-phenoxy]-3-[7-[[1-[3-(2,4-dioxohexahydropyrimidin-1-yl)-5-fluoro-1-methyl-indazol-6-yl]-4-hydroxy-4-piperidyl]methyl]-7-azaspiro[3.5]nonan-2-yl]-4-oxo-quinazoline], the DC50 is below 1 µM in assay [1] (setting [3]); below 1 µM in assay [1] (setting [4]); below 1 µM in assay [1] (A375.10 cells, HiBiT, BRAF V600E, 24 hours, read-out: HiBiT-Degradation A375.10 BRAF 24 hours DC50); below 1 µM in assay [1] (A375.10 cells, HiBiT, BRAF V600E, 24 hours, read-out: HiBiT-Degradation A375.10 BRAF 24 hours IP). For the same compound, the Emax is below 50% in assay [1] (setting [5]); below 50% in assay [1] (A375.10 cells, HiBiT, BRAF V600E, 24 hours, read-out: HiBiT-Degradation A375.10 BRAF 24 hours Emax); 50 to 90% in assay [2] (Homo sapiens, 96 h). The concentration for 50% growth inhibition (GI50) in assay [2] (Homo sapiens, 96 h) was below 1 µM.

In the case of `Cn1nc(N2CCC(=O)NC2=O)c2cc(F)c(N3CC4(CC(N5CCC6(CC5)C[C@@H](n5cnc7ccc(Oc8c(F)ccc(NS(=O)(=O)N9CCOCC9)c8C#N)cc7c5=O)CO6)C4)C3)cc21` [Compound 242, N-[2-cyano-3-[3-[(3R)-8-[2-[3-(2,4-dioxohexahydropyrimidin-1-yl)-5-fluoro-1-methyl-indazol-6-yl]-2-azaspiro[3.3]heptan-6-yl]-1-oxa-8-azaspiro[4.5]decan-3-yl]-4-oxo-quinazolin-6-yl]oxy-4-fluoro-phenyl]morpholine-4-sulfonamide], the figures for the DC50 in assay [1] (setting [3]) and in assay [1] (setting [4]) were below 1 µM and 1 to 10 µM, respectively. Besides, the Emax in assay [1] (setting [5]) was 50 to 90%; in assay [2] (Homo sapiens, 96 h), 50 to 90%. Moreover, the 50% growth inhibitory concentration (GI50) in assay [2] (Homo sapiens, 96 h) was above 10 µM.

Regarding `CCN(C)S(=O)(=O)Nc1ccc(F)c(Oc2ccc3ncc(OCC4(O)CCN(C5CCC(c6cc7c(cc6F)c(N6CCC(=O)NC6=O)nn7C)CC5)CC4)nc3c2)c1C#N` (single isomer, unassigned) [Compound 196, 7-[2-cyano-3-[[ethyl(methyl)sulfamoyl]amino]-6-fluoro-phenoxy]-2-[[1-[4-[3-(2,4-dioxohexahydropyrimidin-1-yl)-5-fluoro-1-methyl-indazol-6-yl]cyclohexyl]-4-hydroxy-4-piperidyl]methoxy]quinoxaline], the DC50 in assay [1] (setting [3]) was below 1 µM. The DC50 in assay [1] (setting [4]) was below 1 µM. The “HiBiT-Degradation A375.10 BRAF 2 hours Emax” value in assay [1] (setting [6]) is “*** (<=50%)”. Also, in assay [2], the GI50 is below 1 µM; the “CTGlo A375.11 96 hours Emax” value is “** (<90% and >50%)”.

Take `CCN(C)S(=O)(=O)Nc1ccc(F)c(Oc2ccc3ncn([C@@H]4CCC5(CCN(C6CCC(c7cc8c(cc7F)c(N7CCC(=O)NC7=O)nn8C)CC6)CC5)C4)c(=O)c3c2)c1C#N` (single isomer, unassigned) [Compound 32]: in assay [1], the “HiBiT-Degradation A375.10 BRAF 2 hours Emax” value is “** (<90% and >50%)”. Also, the DC50 in assay [1] (setting [3]) is below 1 µM. Further, the DC50 in assay [1] (setting [4]) was below 1 µM. Also, in assay [2], the GI50 is 1 to 10 µM and the “CTGlo A375.11 96 hours Emax” value is given as “*** (<=50%)”.

Take `CCN(C)S(=O)(=O)Nc1ccc(F)c(Oc2ccc3ncc(OC4CC5(C4)CN(C4CCC(c6cc7c(cc6F)c(N6CCC(=O)NC6=O)nn7C)CC4)C5)nc3c2)c1C#N` (single isomer, unassigned) [Compound 282, 7-[2-cyano-3-[[ethyl(methyl)sulfamoyl]amino]-6-fluoro-phenoxy]-2-[[2-[4-[3-(2,4-dioxohexahydropyrimidin-1-yl)-5-fluoro-1-methyl-indazol-6-yl]cyclohexyl]-2-azaspiro[3.3]heptan-6-yl]oxy]quinoxaline]: in assay [1] (setting [3]), the DC50 was below 1 µM. For the same compound, the DC50 in assay [1] (setting [4]) is below 1 µM. Also, the “HiBiT-Degradation A375.10 BRAF 2 hours Emax” value in assay [1] (setting [6]) is “** (<90% and >50%)”. Further, in assay [2], the 50% growth inhibitory concentration (GI50) is below 1 µM and the “CTGlo A375.11 96 hours Emax” value is recorded as “*** (<=50%)”.
